{
  "source": "ChEMBL document CHEMBL4689842",
  "about": "“EUbOPEN Chemogenomics Library wave 1” (2021); further: filed as whole numbers so only -1 and 0 and 1 occur",
  "type_in_all_cases": "toxicity, cell-based",
  "key": {"Fibroblast": {"system": "Fibroblast", "experiment": "Incucyte cell viability with human fibroblast", "conditions": "10 µM, compound concentration 10 uM"}, "HEK-293T": {"system": "HEK-293T", "experiment": "Incucyte cell viability with HEK293T", "conditions": "human, 10 µM, compound concentration 10 uM"}, "U2OS": {"system": "U2OS", "experiment": "Incucyte cell viability with U2OS", "conditions": "human, 10 µM, compound concentration 10 uM"}, "[1]": {"conditions": "0 h, replicate number 2, timepoint 0 hours"}, "[2]": {"conditions": "6 h, replicate number 1, timepoint 6 hours"}, "[3]": {"conditions": "12 h, replicate number 1, timepoint 12 hours"}, "[4]": {"conditions": "18 h, replicate number 1, timepoint 18 hours"}, "[5]": {"conditions": "24 h, replicate number 1, timepoint 24 hours"}},
  "data": [
    {"smiles": "CCN(CCO)CCCOc1ccc2c(Nc3cc(CC(=O)Nc4cccc(F)c4)[nH]n3)ncnc2c1", "note": "[DEFOSBARASERTIB]", "values": [
      {"measurement": "Growth Rate", "setting": "Fibroblast; [1]", "value": 1},
      {"measurement": "Growth Rate", "setting": "Fibroblast; [2]", "value": 0},
      {"measurement": "Growth Rate", "setting": "Fibroblast; [3]", "value": 0},
      {"measurement": "Growth Rate", "setting": "Fibroblast; [4]", "value": 0},
      {"measurement": "Growth Rate", "setting": "Fibroblast; [5]", "value": 0},
      {"measurement": "Growth Rate", "setting": "HEK-293T; [1]", "value": 1},
      {"measurement": "Growth Rate", "setting": "HEK-293T; 6 h, replicate number 2, timepoint 6 hours", "value": 1},
      {"measurement": "Growth Rate", "setting": "HEK-293T; [5]", "value": 1},
      {"measurement": "Growth Rate", "setting": "U2OS; 0 h, replicate number 1, timepoint 0 hours", "value": 1},
      {"measurement": "Growth Rate", "setting": "U2OS; [2]", "value": 0},
      {"measurement": "Growth Rate", "setting": "U2OS; [3]", "value": 0},
      {"measurement": "Growth Rate", "setting": "U2OS; [4]", "value": 0},
      {"measurement": "Growth Rate", "setting": "U2OS; [5]", "value": 0}
    ]}
  ]
}
